Data set [1] can be described thus: Paraesthesia symptoms after ingesting edible gel or beta-alanine dissolved in water (Example 1). Format: in vivo, human. The note with it: 2 g beta-alanine ingested; following 20 minutes. As to the method:
To prepare an edible gel containing free beta-alanine the contents of two packets of commercially available strawberry flavored gelatin gel were dissolved in 200 ml of boiling water. The contents were stirred continuously until the gel was completely dissolved. The gel was further fortified with the addition of a sachet of gelatin capsules. To this was added 80 g free beta-alanine (in a final volume of approximately 300 ml). The concentrated gel solution was poured into a 12×12 cm flat mould to a depth of approximately 2 cm and allowed to set to a stiff gel at 4° C. One square piece of gel (approximately 2×2×2 cm in size) contained approximately 2 g of beta-alanine.
In contrast, symptoms of paraesthesia were detected in subjects that ingested 2 g free beta-alanine dissolved in water. Thus the sustained release of free beta-alanine mitigates the symptoms of paraesthesia that are felt when equivalent amounts are administered in a single bolus dose.

Data set [2] in a line: Paraesthesia symptoms, drink versus delayed release capsules (Example 3). Format: in vivo, human. The conditions noted are these: 1.75 g beta-alanine; two subjects. An excerpt: Two subjects were given 1.75 g beta-alanine dissolved in water (formulated as a drink) or 5 capsules, each containing 0.35 g beta-alanine in a delayed release formulation.
Data set [3] deals with muscle. The conditions noted are these: administering to an individual. An excerpt: The dosing schedule that has been preferred for such administration (i.e., 8 times daily), however, leads to compliance issues and problems with paraesthesia. Thus, there is a need for improved supplements containing free beta-alanine or a biological source thereof in a sustained release formulation to increase compliance and decrease paraesthesia events.
During sustained intensive exercise or exercise sustained under conditions of local hypoxia, the accumulation of hydronium ions formed during glycolysis and the accumulation of lactate due to anaerobic metabolism can severely reduce the intracellular pH. The reduced pH can compromise the function of the creatine-phosphorylcreatine system. The decline in intracellular pH also can affect other functions within the cells such as the function of the contractile proteins in muscle fibers.

The conditions of data set [4]: bolus single dose of 2-6 grams.
For data set [5], the system named is muscle. The note with it: following administration (supplementation); previous work; cited from earlier work.

Data on 1 compound can be found in patent US12036196B2, “Compositions and methods for the sustained release of beta-alanine” (Natural Alternatives International, Inc., priority 2005, dated 2024).

Each structure is given as a SMILES string.

In the case of `NCCC(=O)O` [beta-alanine], the symptoms of paraesthesia entry in data set [1] is recorded as “detected”. Further, the symptoms of paraesthesia result in data set [2] is “reported symptoms of paraesthesia affecting the face, scalp, neck, arms, hands and buttocks”. Besides, in the data set with muscle [3], the “muscle beta-alanylhistidine peptide levels” value is recorded as “elevated” and the “total work capacity of the muscle” value was “increased”. Moreover, the paraesthesia entry in data set [4] is on record as “results in paraesthesia”. The carnosine in muscle entry in the data set with muscle [5] was “significantly increased”.
